# Experimental data: patent publication US10881663B2, “Method of treating pain in elderly patients with mild renal impairment” (Baudax Bio, Inc., priority 2018, dated 2021)
# Entries after “also recorded” stand apart in the source; their conditions may differ. Like-named read-outs stand apart in the source and are kept apart here.
# Tests used:
# [1] = intravenous; Ketorolac Tromethamine Injection Prescribing Information; cited from earlier work
# [2] = Postoperative opioid analgesic use, IV meloxicam 30 mg vs placebo (Example 4); assay type: in vivo, human; conditions: for reduction in opioid use compared with placebo: 30 mg IV, p<0.05
# [3] = Injection site pain reported after intravenous meloxicam; assay type: in vivo, human; conditions: patients receiving a dose of intravenous meloxicam
# [4] = Single-dose IV meloxicam pharmacokinetics in elderly subjects with mild renal impairment vs healthy controls (Example 3); assay type: in vivo, human; conditions: single IV dose 30 mg; for AUC(0-6) / AUC(0-t) / AUC(0-inf) / Cmax: iv, 30 mg; for AUC(0-6): AUC0-6 (Mean ± SD), heading: AUC0-6
# Experimental: (§1) This study was a single-center, open-label evaluation of the pharmacokinetics and safety, of single doses of meloxicam in elderly subjects with impaired renal function compared with healthy controls. The study enrolled 12 subjects. Eligible subjects were assigned to a study cohort based on their age and renal function. Renal function was assessed using below the equation for estimation of the glomerular filtration rate (GFR).
# SCr=serum creatinine measured with a standardized assay.
# Enrolled subjects were matched between cohorts according to gender and BMI (±20%).
# Enrolled subjects returned to the study center on the day before dosing (Day −1).
# [5] = Safety of repeat-dose IV meloxicam 30 mg after major surgery in elderly subjects with impaired renal function (Example 4); conditions: for tolerability: advanced age
# [6] = Safety of single IV dose 30 mg meloxicam (Example 3); assay type: in vivo, human
# Experimental: as §1, with “(GFR). GFR(mL/min/1.73 m^2)=175×(SCr)^−1.154×(Age)^−0.203×(0.742 if female)×(1.212 if African American)” for “(GFR).”
# Enrolled subjects were matched between cohorts according to gender and BMI (±20%). Subjects were assigned to cohorts as follows: • Cohort 1 (n=6; 3 male, 3 female): subjects aged 65 to 80 years with impaired renal function (GFR 60-89 mL/min/1.73 m^2) • Cohort 2 (n=6; 3 male, 3 female): subjects aged 18 to 55 years with normal renal function (GFR≥90 mL/min/1.73 m^2).
# Enrolled subjects returned to the study center on the day before dosing (Day −1). During the treatment visit (Day −1 to Day 3), subjects received a single IV dose 30 mg (25 mg/mL) meloxicam. Whole blood samples were collected for pharmacokinetic (PK) analysis prior to dosing and 5, 10, 20, 30, and 45 minutes, and 1, 2, 4, 6, 12, 18, 24, 36, and 48 hours after dosing.
# Safety assessments included monitoring of AEs (adverse events), clinical laboratory tests, vital sign measurements, and ECGs. Upon completion of the treatment visit through Hour 48 (Day 3) assessments, the subjects were discharged from the study center.
smiles,measurement,setting,value
O=C(c1ccccc1)c1ccc2n1CCC2C(=O)O (stereo not drawn) [ketorolac],onset of pain relief,[1],up to 30 minutes
"Cc1cnc(NC(=O)C2=C(O)c3ccccc3S(=O)(=O)N2C)s1 [meloxicam, 4-hydroxy-2-methyl-N-(5-methyl-2-thiazolyl)-2H-1,2-benzothiazine-3-carboxamide-1,1-dioxide]",reduction in opioid use compared with placebo,[2]; Hour 0-24 interval,42.8%
same,reduction in opioid use compared with placebo,[2]; Hour 24-48 interval,41.9%
same,statistically significant reductions in opioid use compared with placebo,"[2]; during treatment, 30 mg IV daily",up to 42.8%
same,patients who reported injection site pain,[3],2%
same,AUC(0-6),"[4]; both sexes, human, plasma, Cohort 1 (65-80 years, mild renal impairment)",16100 ± 1700 ng·h/mL
same,AUC(0-6),"[4]; both sexes, human, plasma, Cohort 2 (18-55 years, normal renal function)",16300 ± 2170 ng·h/mL
same,AUC(0-t),"[4]; both sexes, human, plasma, Cohort 1 (65-80 years, mild renal impairment), read-out: AUC0-12 (Mean ± SD)",26000 ± 2690 ng·h/mL
same,AUC(0-t),"[4]; both sexes, human, plasma, Cohort 1 (65-80 years, mild renal impairment), read-out: AUC0-24 (Mean ± SD)",40600 ± 4750 ng·h/mL
same,AUC(0-t),"[4]; both sexes, human, plasma, Cohort 1 (65-80 years, mild renal impairment), read-out: AUC0-t (Mean ± SD)",70900 ± 18500 ng·h/mL
same,AUC(0-inf),"[4]; both sexes, human, plasma, Cohort 1 (65-80 years, mild renal impairment), read-out: AUC0-∞ (Mean ± SD)",71800 ± 19600 ng·h/mL
same,AUC(0-t),"[4]; both sexes, human, plasma, Cohort 1 (mild renal impairment), read-out: AUC0-t, Least Square Geometric Mean",69100 ng·h/mL
same,AUC(0-inf),"[4]; both sexes, human, plasma, Cohort 1 (mild renal impairment), read-out: AUC0-∞, Least Square Geometric Mean",69800 ng·h/mL
same,Cmax,"[4]; both sexes, human, plasma, Cohort 1 (mild renal impairment), read-out: Cmax, Least Square Geometric Mean",5870 ng/mL
same,Cmax,"[4]; both sexes, human, plasma, Cohort 1: aged 65 to 80 years, GFR 60-89 mL/min/1.73 m^2, plasma, read-out: Cmax (Mean ± SD)",5920 ± 842 ng/mL
same,AUC(0-t),"[4]; both sexes, human, plasma, Cohort 2 (18-55 years, normal renal function), read-out: AUC0-12 (Mean ± SD)",26400 ± 3920 ng·h/mL
same,AUC(0-t),"[4]; both sexes, human, plasma, Cohort 2 (18-55 years, normal renal function), read-out: AUC0-24 (Mean ± SD)",41000 ± 8670 ng·h/mL
same,AUC(0-t),"[4]; both sexes, human, plasma, Cohort 2 (18-55 years, normal renal function), read-out: AUC0-t (Mean ± SD)",67900 ± 22500 ng·h/mL
same,AUC(0-inf),"[4]; both sexes, human, plasma, Cohort 2 (18-55 years, normal renal function), read-out: AUC0-∞ (Mean ± SD)",68500 ± 22800 ng·h/mL
same,AUC(0-t),"[4]; both sexes, human, plasma, Cohort 2 (healthy control), read-out: AUC0-t, Least Square Geometric Mean",64500 ng·h/mL
same,AUC(0-inf),"[4]; both sexes, human, plasma, Cohort 2 (healthy control), read-out: AUC0-∞, Least Square Geometric Mean",65100 ng·h/mL
same,Cmax,"[4]; both sexes, human, plasma, Cohort 2 (healthy control), read-out: Cmax, Least Square Geometric Mean",5580 ng/mL
same,Cmax,"[4]; both sexes, human, plasma, Cohort 2: aged 18 to 55 years, normal renal function, plasma, read-out: Cmax (Mean ± SD)",5620 ± 713 ng/mL
same,Tmax,"[4]; both sexes, human, plasma, all subjects (both cohorts)",4.8 min
same,"AUC0-t, Least Square Geometric Mean Ratio (%) (Cohort 1/Cohort 2)",[4],107%
same,"AUC0-∞, Least Square Geometric Mean Ratio (%) (Cohort 1/Cohort 2)",[4],107%
same,"Cmax, Least Square Geometric Mean Ratio (%) (Cohort 1/Cohort 2)",[4],105%
same,"Tmax, Median (range)","[4]; Cohort 1 (65-80 years, mild renal impairment)",0.08 (0.08-0.08) h
same,"Tmax, Median (range)","[4]; Cohort 2 (18-55 years, normal renal function)",0.08 (0.08-0.08) h
same,intensity of AEs,[5]; 30 mg IV every 24 hours up to 7 doses,generally mild or moderate in intensity
same,tolerability,"[5]; 30 mg IV every 24 hours up to 7 doses after major surgery, impaired renal function",well tolerated
same,tolerability,"[5]; 30 mg IV every 24 hours up to 7 doses after major surgery, impaired renal function, listed as IV meloxicam",well tolerated with no deaths or discontinuations due to an AE
same,incidence of SAEs,"[5]; 30 mg IV every 24 hours up to 7 doses after major surgery, age 66-80 years, impaired renal function",2.3%
same,injection site AEs,[5]; 30 mg IV over 15-30 seconds every 24 hours up to 7 doses,no injection site AEs
same,infusion or infusion site reactions,[6]; 30 mg as an IV infusion over 17-20 seconds,"not associated with any infusion, or infusion site, reactions"
same,intensity of AEs,[6]; single IV dose 30 mg,generally mild or moderate in intensity
same,vital sign or ECG findings,[6]; single IV dose 30 mg,no clinically significant vital sign or ECG (electrocardiogram) findings
same,incidence of adverse events (subjects with any event),"[6]; single IV dose 30 mg, all 12 subjects",33.3%
same,tolerability,"[6]; single IV dose 30 mg, healthy subjects and subjects with mild renal impairment","well tolerated with no incidence of death, SAEs (severe adverse events), or discontinuations due to an AE; also recorded: safe and well tolerated"
